In brackets after ≈: the same amount, converted by molar mass.
Legend:
Staphylococcus aureus [1] = assay: Antimicrobial activity against methicillin-susceptible Staphylococcus aureus by time-kill methodology
Staphylococcus aureus [2] = assay: Antimicrobial activity against vancomycin-intermediate Staphylococcus aureus by time-kill methodology; format: functional
Staphylococcus aureus [3] = assay: Antimicrobial activity against community-acquired methicillin-resistant Staphylococcus aureus Panton-Valentine leukocidin negative by time-kill methodology; format: functional
Staphylococcus aureus [4] = assay: Antimicrobial activity against nosocomially-acquired methicillin-resistant Staphylococcus aureus by time-kill methodology; format: functional
Staphylococcus aureus [5] = assay: Antimicrobial activity against vancomycin-resistant Staphylococcus aureus by time-kill methodology; format: functional
Staphylococcus aureus [6] = assay: Antimicrobial activity against community-acquired methicillin-resistant Staphylococcus aureus Panton-Valentine leukocidin positive by time-kill methodology; format: functional

Molecule | MIC (Staphylococcus aureus [1]) [µg/mL] | MIC (Staphylococcus aureus [2]) [µg/mL] | MIC (Staphylococcus aureus [3]) [µg/mL] | MIC (Staphylococcus aureus [4]) [µg/mL] | MIC (Staphylococcus aureus [5]) [µg/mL] | MIC (Staphylococcus aureus [6]) [µg/mL]
CCCCCCCCCC(=O)N[C@@H](Cc1c[nH]c2ccccc12)C(=O)N[C@H](CC(N)=O)C(=O)N[C@@H](CC(=O)O)C(=O)N[C@@H]1C(=O)NCC(=O)N[C@@H](CCCN)C(=O)N[C@@H](CC(=O)O)C(=O)N[C@H](C)C(=O)N[C@@H](CC(=O)O)C(=O)NCC(=O)N[C@H](CO)C(=O)N[C@@H]([C@H](C)CC(=O)O)C(=O)N[C@@H](CC(=O)c2ccccc2N)C(=O)O[C@@H]1C | 0.25 (≈ 0.154 µM) | 2 (≈ 1.23 µM) | 0.5 (≈ 0.309 µM) | 0.25 (≈ 0.154 µM) | 0.25 (≈ 0.154 µM) | 0.5 (≈ 0.309 µM)
CO[C@H]1/C=C/O[C@@]2(C)Oc3c(C)c(O)c4c(O)c(c(/C=N/N5CCN(C)CC5)c(O)c4c3C2=O)NC(=O)/C(C)=C\C=C\[C@H](C)[C@H](O)[C@@H](C)[C@@H](O)[C@@H](C)[C@H](OC(C)=O)[C@@H]1C [RIFAMPIN] | 0.008 (≈ 0.00972 µM) | 0.016 (≈ 0.0194 µM) | 0.016 (≈ 0.0194 µM) | 0.004 (≈ 0.00486 µM) | 0.008 (≈ 0.00972 µM) | 0.004 (≈ 0.00486 µM)
GENTAMICIN | – | 1 | 1 | 1 | 64 | 1
